From PubChem BioAssay (NCI)
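Cells were grown in 96-well plates and exposed to each compound for 48 hours at five concentrations; endpoints were interpolated linearly between bracketing concentrations, or set to the highest concentration if not reached. TGI is the concentration that stops growth completely.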

Tests used:
Assay in all cases: NCI tumour cell line growth inhibition, 48 h
786-0 renal = system: 786-0 renal
A498 renal = system: A498 renal
A549 NSCLC = system: A549 NSCLC
ACHN renal = system: ACHN renal
BT-549 breast = system: BT-549 breast
CAKI-1 renal = system: CAKI-1 renal
CCRF-CEM leukemia = system: CCRF-CEM leukemia
COLO 205 colon = system: COLO 205 colon
DU-145 prostate = system: DU-145 prostate
EKVX NSCLC = system: EKVX NSCLC
HCC-2998 colon = system: HCC-2998 colon
HCT-116 colon = system: HCT-116 colon
HCT-15 colon = system: HCT-15 colon
HL-60(TB) leukemia = system: HL-60(TB) leukemia
HOP-62 NSCLC = system: HOP-62 NSCLC
HOP-92 NSCLC = system: HOP-92 NSCLC
HS 578T breast = system: HS 578T breast
HT29 colon = system: HT29 colon
IGROV1 ovarian = system: IGROV1 ovarian
K-562 leukemia = system: K-562 leukemia
KM12 colon = system: KM12 colon
LOX IMVI melanoma = system: LOX IMVI melanoma
M14 melanoma = system: M14 melanoma
MALME-3M melanoma = system: MALME-3M melanoma
MCF7 breast = system: MCF7 breast
MDA-MB-231 breast = system: MDA-MB-231 breast
MDA-MB-435 = system: MDA-MB-435
MDA-N = system: MDA-N
NCI-H226 lung = system: NCI-H226 lung
NCI-H23 lung = system: NCI-H23 lung
NCI-H460 lung = system: NCI-H460 lung
NCI-H522 lung = system: NCI-H522 lung
NCI/ADR-RES ovarian = system: NCI/ADR-RES ovarian
OVCAR-3 ovarian = system: OVCAR-3 ovarian
OVCAR-4 ovarian = system: OVCAR-4 ovarian
OVCAR-5 ovarian = system: OVCAR-5 ovarian
OVCAR-8 ovarian = system: OVCAR-8 ovarian
PC-3 prostate = system: PC-3 prostate
RPMI-8226 leukemia = system: RPMI-8226 leukemia
RXF 393 renal = system: RXF 393 renal
SF-268 CNS = system: SF-268 CNS
SF-295 CNS = system: SF-295 CNS
SK-MEL-2 melanoma = system: SK-MEL-2 melanoma
SK-MEL-28 melanoma = system: SK-MEL-28 melanoma
SK-MEL-5 melanoma = system: SK-MEL-5 melanoma
SK-OV-3 ovarian = system: SK-OV-3 ovarian
SN12C renal = system: SN12C renal
SNB-19 CNS = system: SNB-19 CNS
SNB-75 CNS = system: SNB-75 CNS
SR leukemia = system: SR leukemia
SW-620 colon = system: SW-620 colon
T-47D breast = system: T-47D breast
TK-10 renal = system: TK-10 renal
U251 CNS = system: U251 CNS
UACC-257 melanoma = system: UACC-257 melanoma
UACC-62 melanoma = system: UACC-62 melanoma
UO-31 renal = system: UO-31 renal

Measured: TGI

O=P(O)(OP(=O)(O)c1ccccc1)c1ccccc1 (tested in a mixture with another compound)
> 100 µM: all assays above

OC(Cc1cccnc1)(c1ccccc1)c1ccccc1
> 100 µM: all assays above
